Like-named read-outs stand apart in the source and are kept apart here.

A short description of data set [1]: in vitro. The following applies: dog.
Data set [2] deals with influenza A/Puerto Rico/8/34 H1N1 (PR8) virus. In words: microbe, parasite or virus in culture. Type of data set: cell-based. The settings on record: for IC50: Influenza A virus, 24 h, read-out: IC50 (concentration of compound causing 50% reduction of viral infection).
Data set [3] can be described thus: in vitro. The settings on record: human.
For data set [4], the system named is influenza A/Puerto Rico/8/34 H1N1 (PR8) virus. The experiment in a line: microbe, parasite or virus in culture. The format is cell-based. The settings on record: for IC50: Influenza A virus.
Data set [5] has the same test system. Type of data set: cell-based.
The mark [6] stands for this setting: A549, 24 h, read-out: IC50 (concentration of compound causing 50% reduction of viral infection).

In the case of `C[N+]([O-])(CCc1ccc(O)cc1)Cc1ccccc1` (stereo not drawn) [Compound 12e, N-Benzyl-2-(4-Hydroxyphenyl)-N-Methylethan-1-Amine Oxide], the CC50 in “in vitro [1]” was 109 ± 5.1 µM. For the same molecule, in data set [2], the “SI (Selectivity Index, CC50/IC50)” value is reported as 0.81 and the IC50 amounted to 133 ± 5.8 µM.
`C[N+]([O-])(CCc1ccc(O)cc1)Cc1ccc(O)cc1` (stereo not drawn) [Compound 12c, N-(4-Hydroxybenzyl)-2-(4-Hydroxyphenyl)-N-Methylethan-1-Amine Oxide] came in with a CC50 in “in vitro [1]” of 114 ± 5.2 µM. The molecule further showed a CC50 at 24 h in the data set “in vitro [3]” of 83.8 ± 5 µM. Also, the results for the IC50 in data set [2] and in data set [4] (setting [6]) were 84.7 ± 4.8 µM and 80.2 ± 4.9 µM, respectively.
Regarding `C[N+]([O-])(CCCc1ccccc1)Cc1cccc(O)c1` (stereo not drawn) [Compound 12h, N-(3-Hydroxybenzyl)-N-Methyl-3-Phenylpropan-1-Amine Oxide], the CC50 in “in vitro [1]” is 221 ± 8.9 µM; in “in vitro [3]”, 287 ± 8.3 µM. Further, the IC50 in data set [2] was 73.2 ± 3.3 µM; in data set [4] (setting [6]) it was 70.4 ± 3.1 µM; in data set [4] (A549, read-out: IC50 range against viral replication), 70 to 73 µg/mL. For the same molecule, the “foci of infection in cell monolayers” value in data set [5] is on record as “reduction of foci of infection”.
Turning to `C[N+]([O-])(CCc1ccc(O)cc1)Cc1ccc([N+](=O)[O-])c(O)c1` (stereo not drawn) [Compound 12d, N-(3-Hydroxy-4-Nitrobenzyl)-2-(4-Hydroxyphenyl)-N-Methylethan-1-Amine Oxide], the CC50 in the data set “in vitro [1]” turned out to be 101 ± 4.9 µM; in “in vitro [3]”, 113 ± 6.1 µM. Moreover, the IC50 in data set [2] is 70.2 ± 4 µM; in data set [4] (setting [6]), 1240 ± 30.2 µM. Besides, the “antiviral activity against influenza A virus (in words)” value in data set [4] is given as “deprived the molecule of antiviral activity”.
Molecule `COc1cc(Br)c(C[N+](C)([O-])CCc2ccc(O)cc2)cc1O` (stereo not drawn) [Compound 9, N-(2-Bromo-5-Hydroxy-4-Methoxybenzyl)-2-(4-Hydroxyphenyl)-N-Methylethan-1-Amine Oxide] registered a CC50 in the data set “in vitro [1]” of 206 ± 7.9 µM. Also, the CC50 at 24 h in “in vitro [3]” was determined as 211 ± 8.1 µM. The results for the IC50 in data set [2] and in data set [4] (setting [6]) were 86.8 ± 5.1 µM and 377 ± 11.4 µM, respectively.
In the same order, the values of `C[N+]([O-])(CCc1ccc(O)cc1)Cc1cccc(O)c1` (stereo not drawn) [Compound 12b, N-(3-hydroxybenzyl)-2-(4-hydroxyphenyl)-N-methylethan-1-amine oxide] are 129 ± 6 µM, 149 ± 6.2 µM, 138 ± 6.1 µM and 83.2 ± 5.1 µM.
In the same order, the values of `COc1ccc(C[N+](C)([O-])CCc2ccc(O)cc2)cc1O` (stereo not drawn) [Compound 12a, N-(3-Hydroxy-4-Methoxybenzyl)-2-(4-Hydroxyphenyl)-N-Methylethan-1-Amine Oxide] are 137 ± 5.8 µM, 200 ± 7.1 µM, 137 ± 5.9 µM and 78.8 ± 4.3 µM.
